Results on two compounds are retold here after patent US20230364063A1, “ORAL PHARMACEUTICAL COMPOSITION AND METHOD FOR PRODUCING SAME” (ARTham Therapeutics Inc., priority 2020, published 2023).

Values after ≈ are worked out from the molar mass of the structure shown. Like-named read-outs stand apart in the source and are kept apart here.

The nature of data set [1]: pH-dependent dissolution profile (equilibrium solubility) of ART-001 in buffers pH 1 to 10, HPLC. The format is physicochemical. The note with it: for solubility: aqueous buffer, thermodynamic from solid, room temperature. The protocol: The dissolution profile of ART-001 in various pH environments was tested by the following procedure. Excess amounts of ART-001 were added to 50 mM phosphate buffer (pH 1, 2, 7, and 8), citrate buffer (pH 3, 4, 5, and 6), boric acid buffer (pH 9), and bicarbonate buffer (pH 10), with the pH adjusted variously in the range of from pH 1 to pH 10 with a 6N HCl or 10N sodium hydroxide solution, and stirred at room temperature. When the dissolved state reached equilibrium, a fixed amount of each sample was taken. After centrifugation at 1000 rpm for 10 minutes, the supernatant was collected and measured by HPLC. The pH at the beginning and end of dissolution were also measured and recorded.

The conditions of data set [2]: cited from earlier work.
Another data set relates to advanced solid tumors. Conditions: Phase I, patients with advanced solid tumors; cited from earlier work.
For data set [3] the following is noted: healthy adults, cited from earlier work.
The conditions of data set [4]: cited from earlier work. The source holds these as a separate data set.
For data set [5] the following is noted: cited from earlier work. This is another data set of the same source.

One may read the solubility as how much of the substance goes into solution per volume.

As for `Nc1nc2cc(-c3ccc4ncc(C(=O)N5CCOCC5)n4c3)ccc2o1` [ART-001, Serabelisib], the solubility in data set [1] (bicarbonate buffer, start pH 10.00, end pH 10.07, read-out: Solubility) came to 2.18 µg/mL (≈ 6 µM); in data set [1] (boric acid buffer, start pH 9.00, end pH 9.16, read-out: Solubility), 1.3 µg/mL (≈ 3.58 µM); in data set [1] (citrate buffer, start pH 3.17, end pH 3.33, read-out: Solubility) it was 36.8 µg/mL (≈ 101 µM); in data set [1] (citrate buffer, start pH 4.00, end pH 4.19, read-out: Solubility), 5.7 µg/mL (≈ 15.7 µM); in data set [1] (citrate buffer, start pH 5.03, end pH 5.2, read-out: Solubility) it was 1.7 µg/mL (≈ 4.68 µM); in data set [1] (citrate buffer, start pH 5.95, end pH 6.11, read-out: Solubility), 1.3 µg/mL (≈ 3.58 µM). In addition, the solubility in data set [1] (citrate, phosphate, boric acid and bicarbonate buffers, pH 6 or higher, read-out: solubility under high pH conditions) was 1.3 µg/mL (≈ 3.58 µM); in data set [1] (phosphate buffer, pH 2.5 or lower, read-out: solubility under low pH conditions), 312 to 10000 µg/mL (≈ 859 to 27500 µM); in data set [1] (phosphate buffer, start pH 1.04, end pH 1.33, read-out: Solubility), 1140 µg/mL (≈ 3130 µM); in data set [1] (phosphate buffer, start pH 2.09, end pH 2.56, read-out: Solubility), 312 µg/mL (≈ 859 µM); in data set [1] (phosphate buffer, start pH 6.81, end pH 6.97, read-out: Solubility), 1.2 µg/mL (≈ 3.3 µM); in data set [1] (phosphate buffer, start pH 8.15, end pH 8.3, read-out: Solubility), 1.3 µg/mL (≈ 3.58 µM). Further, the “solubility under high pH conditions when the solubility under low pH conditions is considered to be 100%” value in data set [1] (pH 6 or higher vs pH 2.5 or lower) is on record as “about 4%”. Also, the “solubility in acidic solutions” value in data set [2] (acidic solutions) is recorded as “high solubility”. The “solubility in neutral to basic solutions” value in data set [2] (neutral to basic solutions) is recorded as “extremely low solubility”. For the same compound, the therapeutic efficacy entry in the data set on advanced solid tumors is given as “limited therapeutic efficacy”. Further, in the data set on advanced solid tumors, the variability in pharmacokinetics result was “high degree of variability”. The “absorption of ART-001” value in data set [3] (co-administration of proton pump inhibitor (lansoprazole), stomach pH neutral) is “markedly decreased”. Besides, the pharmacokinetic variability result in data set [3] is reported as “significant pharmacokinetic variability”.
With `Cc1nc(NC(=O)N2CCC[C@H]2C(N)=O)sc1-c1ccnc(C(C)(C)C(F)(F)F)c1` [alperisib, Alpelisib], the solubility entry in data set [4] is “pH-dependent solubility”. Also, the “pharmacokinetics in clinical studies” value in data set [5] is given as “variations in pharmacokinetics”.
